# Source: patent US3998811A, “Optically active 1,4-benzodiazepines and process for the preparation thereof” (CRC Compagnia di Recerca Chimica S.A., priority 1971, dated 1976)
# Experiments:
# [1] = system: mice; experiment: Anticonvulsant effect against pentylene tetrazole shock, mice; type: in vivo; settings: relative to chlordiazepoxide = 1.00, larger value = less effective
# Experimental: (§1) The pharmacalogical activity of the novel compounds of this invention was evaluated by standard methods such as the anticonvulsant effect against pentylene tetrazole shock and maximal and minimal electroshock, muscle relaxing ability, the fighting test, and hypnotic effect. These standard test are described in detail in the literature, for example, in L. O. Randall, C. L. Schenkel, R. F. Banziger, Curr. Ther. Res., Clin. Exp., 590 (1965), and M. I. Gluckman, Curr. Ther. Res., Clin. Exp., 7,721 (1965).
# (§2) This Example illustrates the pharmacological effectiveness of the compounds of this invention. A number of the compounds of this invention were tested for their pharmacological effect on the CNS by the procedures described above. Also tested were the corresponding racemic mixtures and three commercial tranquillizers:
# (§3) The results of the tests are shown in Table IV wherein the relative potencies compared with that of chlordiazepoxide which is assigned an activity of 1.00. […] It can also be seen that the pharmaceutically active compounds of this invention compare favorably with some commercially useful tranquillizers and even surpass them in some respects.
# [2] = system: mice; experiment: Anticonvulsant effect against maximal electroshock, mice; type: in vivo; settings: relative to chlordiazepoxide = 1.00, larger value = less effective
# Experimental: as §1, §2, §3
# [3] = system: mice; experiment: Anticonvulsant effect against minimal electroshock, mice; type: in vivo; settings: relative to chlordiazepoxide = 1.00, larger value = less effective
# Experimental: as §1, §2, §3
# [4] = system: mice; experiment: Muscle relaxation (muscle relaxing ability), mice; type: in vivo; settings: relative to chlordiazepoxide = 1.00, larger value = less effective
# Experimental: as §1, §2, §3
# [5] = system: mice; experiment: Fighting test, mice; type: in vivo; settings: relative to chlordiazepoxide = 1.00, larger value = less effective
# Experimental: as §1, §2, §3
# [6] = system: mice; experiment: Hypnotic effect, mice; type: in vivo; settings: relative to chlordiazepoxide = 1.00, larger value = less effective
# Experimental: as §1, §2, §3
# [7] = LD 50 P.O., mice; settings: mouse, in vivo, po
# [8] = system: experimental animals; settings: R- form; even at low dosages; cited from earlier work
# [9] = S- form; cited from earlier work
Compound,"Relative potency, anticonvulsant effect, pentylene tetrazole [1]","Relative potency, anticonvulsant effect, maximal electro shock [2]","Relative potency, anticonvulsant effect, minimal electro shock [3]","Relative potency, muscle relaxation [4]","Relative potency, fighting test [5]","Relative potency, hypnotic effect [6]",LD50 [7] [mg/kg],known adverse effect in experimental animals [8],known pharmacological action [9]
CC(O)C1N=C(c2ccccc2)c2cc(Cl)ccc2NC1=O (racemic) [24 (Rac.)],105.60,12.60,3.27,5.42,16.30,3.20,,,
O=C1Nc2ccc(Cl)cc2C(c2ccccc2)=N[C@H]1Cc1ccc(O)cc1 [22 (S)],7.3,6.30,1.42,4.30,5.70,4.20,1850,,
CC1N=C(c2ccccc2)c2cc(Cl)ccc2N(C)C1=O (racemic) [26 (Rac.)],47.30,10.20,2.10,6.54,8.94,2.70,,,
"O=C1Nc2ccc(Cl)cc2C(c2ccccc2)=NC1O (stereo not drawn) [Oxazepam, 7-chloro-1,3-dihydro-3-hydroxy-5-phenyl-2H-1,4-benzodiazepine-2-one]",,,,0.62,,,3700,,
"CN1CCN=C(c2ccccc2)c2cc(Cl)ccc21 [Medazepam, 7-chloro-5-phenyl-1-methyl-1,2-dihydro-3H-1,4-benzodiazepine]",6.2,1.03,0.32,1.3,1.0,0.30,1420,,
CN1C(=O)C(OCC(O)CO)N=C(c2ccccc2)c2cc(Cl)ccc21 (racemic) [31 (Rac.)],105.4,4.72,2.30,9.60,8.74,2.30,,,
C[C@@H]1N=C(c2ccccc2)c2cc(Cl)ccc2NC1=O [20 (S)],4.1,1.32,0.20,1.0,1.0,0.4,2300,,
"CC[C@H](CO)NCCN[C@H](CC)CO [R- form, Ethambutole]",,,,,,,,"causes blindness in experimental animals, even at low dosages",
CN1C(=O)C(OCC(O)CO)N=C(c2ccccc2)c2cc(Cl)ccc21 [31 (S)],10.30,0.38,,0.80,1.0,0.42,6000,,
C[C@@H]1N=C(c2ccccc2)c2cc(Cl)ccc2N(C)C1=O [26 (S)],5.80,0.90,0.10,0.70,1.00,0.80,2600,,
O=C1Nc2ccc(Cl)cc2C(c2ccccc2)=N[C@H]1Cc1c[nH]c2ccccc12 [23 (S)],3.20,4.10,1.70,6.20,7.10,0.80,2300,,
C[C@@H](O)[C@@H]1N=C(c2ccccc2)c2cc(Cl)ccc2NC1=O [24 (S)],10.30,1.30,0.45,0.62,1.70,0.51,6000,,
CC1N=C(c2ccccc2)c2cc(Cl)ccc2NC1=O (racemic) [20 (Rac.)],30.40,8.20,5.00,9.60,10.4,2.30,,,
O=C1Nc2ccc(Cl)cc2C(c2ccccc2)=NC1Cc1c[nH]c2ccccc12 (racemic) [23 (Rac.)],30.60,38.70,14.60,60.50,80.30,8.30,,,
CC(C)[C@@H]1N=C(c2ccccc2)c2cc(Cl)ccc2NC1=O [25 (S)],1.80,1.75,0.30,1.15,1.40,0.80,1850,,
O=C1Nc2ccc(Cl)cc2C(c2ccccc2)=NC1Cc1ccccc1 (racemic) [21 (Rac.)],40.50,10.30,20.60,40.70,45.8,10.70,,,
O=C1Nc2ccc(Cl)cc2C(c2ccccc2)=NC1Cc1ccc(O)cc1 (racemic) [22 (Rac.)],75.6,65.40,16.70,46.20,56.30,18.60,,,
"CC[C@@H](CO)NCCN[C@@H](CC)CO [S- form of Ethambutole, Ethambutole]",,,,,,,,,anti-tuberculous agent
O=C1Nc2ccc(Cl)cc2C(c2ccccc2)=N[C@H]1Cc1ccccc1 [21 (S)],5.30,4.82,2.30,4.10,4.50,2.10,1600,,
CC(C)C1N=C(c2ccccc2)c2cc(Cl)ccc2NC1=O (racemic) [25 (Rac.)],20.4,20.30,4.70,8.60,9.30,4.20,,,
